Measurements published in patent US8304202B2, “Interaction of BIM with TRIM2” (priority 2007, dated 2012).
Entries after “also recorded” stand apart in the source; their conditions may differ. Where two headings read alike, the source gives them in different places. Residues, ends and D or L forms follow the SMILES beside them. *: point of attachment. Cbz = O=C(OCc1ccccc1)*

Key:
[1] = system: rat cortical neuronal cultures; assay: Rapid ischemic tolerance: cell death after harmful ischemia (OGD) with preconditioning ischemia, propidium iodide staining; assay type: cell-based; settings: for rapid ischemic tolerance: neuronal cultures, preconditioning ischemia; for neuroprotective effect of preconditioning: 10 μM, one hour incubation following 30 minutes of preconditioning OGD, cell death 24 hours after 120 minutes of harmful ischemia
Experimental: (§1) Neurons were exposed to ischemic conditions, namely, oxygen and glucose deprivation (OGD), by washing the cells with phosphate-buffered saline (NaCl ([…]), KCl (2.7 mM), Na2HPO4 (10 mM), KH2PO4 (1.7 mM), pH 7.4) supplemented with 0.5 mM CaCl2, 1.0 mM MgCl2 and placing the cells (in culture dishes) in an anaerobic chamber (85% N2, 5% H2, 10% CO2; 35° C.) for 30 minutes (preconditioning ischemia) or 120 minutes (harmful ischemia).
Cell death was assessed 24 hours following 120 minutes of harmful ischemia using propidium iodide staining. Data shown are mean±S.E. (n=8). Data were analyzed by one-way ANOVA, with Bonferroni's post-hoc test. *, p<0.05.
Cells were incubated for one hour following 30 minutes of preconditioning OGD with either PD98059 or U0126 (both 10 μM), which are compounds that prevent p42/p44 MAPK activation by inhibiting an upstream regulatory MAPK kinase (MEK).

Bim protein = Bim protein levels by immunoblot following preconditioning ischemia; assay type: cell-based, rat; settings: for Bim degradation: following preconditioning ischemia
Experimental: as §1
Bim protein levels were determined by immunoblotting, and then the blots were re-probed with α-tubulin to control for loading.
(§2) In the top and middle panels of the figure, phosphorylation of p42/p44 MAPK was determined by immunoblot, and the blots were re-probed for total p42/p44 MAPK expression. In the bottom panel of the figure, cells were subjected to preconditioning ischemia and then recovered in the presence of U0126. Bim expression was determined by immunoblot. Data shown are representative of three independent experiments.
The effect of U0126 on Bim protein levels also was investigated following 30 minutes of OGD.

p42/p44 MAPK = system: p42/p44 MAPK
Experimental: as §2
As a control, the same blot was probed for non-phospho-p42/p44 MAPK.

Bim = settings: following preconditioning ischemia
Source text: The experiments described in this example investigate the degradation of the pro-apoptotic Bcl-2 family member Bim as a mechanism of rapid ischemic tolerance.

HCC1419 cells = assay: Cell death as LDH release (absorbance at 492 nm) in HCC1419 cells; assay type: cell-based; settings: for EC50: Homo sapiens, LDH release
Experimental: (§3) The stabilization of Bim in cells by blocking Bim degradation may sensitize the cells to an additional anti-cancer agent and promote cell death. […] Cell death was measured as a release of the enzyme lactate dehydrogenase (LDH), which is detected as absorbance at 492 nm.
(§4) Cells were incubated with various concentrations of doxorubicin (μM) for 72 h, in the absence (solid squares) or presence (open circles) of 100 μM U0126.

MCF-7 cells = assay: Cell death as LDH release (absorbance at 492 nm) in MCF-7 cells; assay type: cell-based; settings: 100 μM U0126
Experimental: as §3, §4

[2] = system: GST-Bim polypeptide with TRIM2 protein; settings: cells incubated with inhibitor, preconditioning ischemia
Experimental: To follow up on this observation, co-immunoprecipitation was utilized to determine whether TRIM2 binding to Bim correlates with the degradation of Bim following preconditioning ischemia in neuronal cultures. GST-Bim was incubated with cell lysates from control neurons (“CONT”; open bars) and neurons exposed to preconditioning ischemia (“PC”; hatched bars). GST-Bim interacting with TRIM2 then was co-immunoprecipitated with anti-TRIM 2 antibody and detected by immunoblot with an anti-GST antibody.

CC(C)C[C@@H](C=O)NC(=O)[C@H](CC(C)C)NC(=O)[C@H](CC(C)C)NC(=O)OCc1ccccc1 [MG-132] (Cbz-Leu-Leu-Leu-aldehyde)
rapid ischemic tolerance [1]: blocked rapid ischemic tolerance | Bim degradation (Bim protein): prevented Bim degradation

COc1cccc(-c2cc(=O)c3ccccc3o2)c1N [PD98059, 2-(2-Amino-3-methoxyphenyl)-4H-1-benzopyran-4-one]
neuroprotective effect of preconditioning [1]: blocked

N#CC(=C(/N)Sc1ccccc1N)/C(C#N)=C(\N)Sc1ccccc1N [U0126, 1,4-diamino-2,3-dicyano-1,4-bis(2-aminophenylthio)butadiene]
neuroprotective effect of preconditioning [1]: blocked | rapid ischemic tolerance [1]: blocked rapid ischemic tolerance; also recorded: blocks | Bim protein expression in control-treated cells (Bim protein; control-treated cells, no preconditioning): no effect | Bim degradation (Bim protein): reduced; also recorded: blocks | decrease in Bim protein expression at one hour following 30 minutes of preconditioning ischemia (Bim protein; recovery in the presence of U0126): blocked | phosphorylation of MAPK in control cells (p42/p44 MAPK; control cells treated with U0126 alone): no phosphorylation of MAPK | total levels of p42/p44 MAPK (p42/p44 MAPK; following preconditioning ischemia or U0126 treatment): did not change | increase in p42/p44 MAPK phosphorylation following preconditioning ischemia (p42/p44 MAPK; one hour following preconditioning ischemia): blocked | Bim ubiquitination (Bim): reduced | enhancement of doxorubicin-induced cell death (HCC1419 cells; HCC1419 cells (low Bim:TRIM2 ratio), 100 μM U0126): enhancement | cell death (LDH release) (HCC1419 cells; HCC1419 cells, U0126 alone): does not induce cell death | enhancement of doxorubicin-induced cell death (MCF-7 cells; MCF-7 cells (high Bim:TRIM2 ratio)): not observed | co-immunoprecipitation of GST-Bim polypeptide with TRIM2 protein [2]: reduced

COc1cccc2c1C(=O)c1c(O)c3c(c(O)c1C2=O)C[C@@](O)(C(=O)CO)C[C@@H]3O[C@H]1C[C@H](N)[C@H](O)[C@H](C)O1 [doxorubicin]
shift in the response to doxorubicin when U0126 is present (HCC1419 cells; HCC1419 cells, 72 h, 100 μM U0126): leftward shift | EC50 (HCC1419 cells; HCC1419 cells, 72 h, absence of U0126, read-out: calculated EC50 of doxorubicin alone): 60 µM | EC50 (HCC1419 cells; HCC1419 cells, 72 h, presence of 100 μM U0126, read-out: calculated EC50 of doxorubicin when combined with U0126): 0.01 µM | responsiveness to combination of doxorubicin and U0126 relative to doxorubicin alone (MCF-7 cells; MCF-7 cells, 72 h): no increased responsiveness
